The record followed here is patent US20240270712A1, “BENZIMIDAZOLE COMPOUND OR SALT THEREOF, CANINE FILARIASIS CONTROL AGENT CONTAINING SAME, AND METHOD OF USE THEREOF” (NIHON NOHYAKU CO., LTD., priority 2021, published 2024).

The test system of the assay is L-3 stage larvae of canine filariae (Dirofilaria immitis). Put plainly: Impact evaluation test on growth of canine filariae. It counts as cell-based. The following applies: 168 h, read-out: growth inhibition rate (growth from L3-stage larvae to L4-stage larvae).

The term inhibition denotes the percentage by which the read-out fell short of the control. As for `FC(F)(F)C(F)(F)COc1ccc(-c2nc3cc(Br)c(Br)cc3[nH]2)cn1` [Compound 1-5, 5,6-dibromo-2-(6-(2,2,3,3,3-pentafluoropropyloxy)pyridin-3-yl)benzimidazole], the inhibition at 50 ppm is no less than 50%.
